Test results: PubChem BioAssay (NCI)
“And” between values parts separate entries of the source, which are not always exact repeats. Equal entries are not always repeated.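 Briefly, cells in 96-well plates were exposed to five compound concentrations for 48 h, and endpoints were estimated by linear interpolation. GI50 marks 50% less growth. Definition used: TGI = concentration required for complete inhibition of growth.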

Legend:
Experiment in all cases: NCI anticancer screen, dose series, 48 h
A549 NSCLC = tested on: A549 NSCLC
HCT-116 colon = tested on: HCT-116 colon
HOP-62 NSCLC = tested on: HOP-62 NSCLC
KM12 colon = tested on: KM12 colon
MALME-3M melanoma = tested on: MALME-3M melanoma
OVCAR-3 ovarian = tested on: OVCAR-3 ovarian
OVCAR-4 ovarian = tested on: OVCAR-4 ovarian
RXF 393 renal = tested on: RXF 393 renal
SNB-75 CNS = tested on: SNB-75 CNS
TK-10 renal = tested on: TK-10 renal

| Compound | TGI (A549 NSCLC) [µM] | TGI (HCT-116 colon) [µM] | TGI (HOP-62 NSCLC) [µM] | TGI (KM12 colon) [µM] | TGI (MALME-3M melanoma) [µM] | TGI (OVCAR-3 ovarian) | TGI (OVCAR-4 ovarian) [µM] | TGI (RXF 393 renal) [µM] | TGI (SNB-75 CNS) [µM] | TGI (TK-10 renal) [µM] | GI50 (A549 NSCLC) | GI50 (HCT-116 colon) | GI50 (HOP-62 NSCLC) | GI50 (KM12 colon) | GI50 (MALME-3M melanoma) [µM] | GI50 (OVCAR-3 ovarian) | GI50 (OVCAR-4 ovarian) | GI50 (RXF 393 renal) [µM] | GI50 (SNB-75 CNS) | GI50 (TK-10 renal) |
| --- | --- | --- | --- | --- | --- | --- | --- | --- | --- | --- | --- | --- | --- | --- | --- | --- | --- | --- | --- | --- |
| N#COc1ccc(Oc2ccccc2)cc1 | > 100 | > 100 | > 100 | > 100 | > 100 | > 100 µM | > 100 | > 100 | > 100 | > 100 |  |  |  |  |  |  |  |  |  |  |
| CC(C)(C)OP(=O)(OC(C)(C)C)C(O)c1ccc(/C=C(\C#N)C(N)=O)cc1 (configuration not stated) | > 100 | > 100 | > 100 | > 100 | > 100 | > 100 µM | > 100 | > 100 | > 100 | > 100 |  |  |  |  |  |  |  |  |  |  |
| CC1=C(/C=C/C(=O)CC(=O)/C=C/C2=C(C)CCCC2(C)C)C(C)(C)CCC1 | > 100 | > 100 | > 100 | > 100 | > 100 | > 100 µM | > 100 | 16 | > 100 | > 100 | 34.2 µM | 27.7 µM | 32.3 µM | 32.9 µM | 38.1 | 32.1 µM | 21.7 µM | 4.38 | 49.6 µM | 28.1 µM |
| O=C1CC[C@H](N2Cc3c(OCc4ccc(CN5CCOCC5)cc4)cccc3C2=O)C(=O)N1 | > 100 | > 100 | > 100 | > 100 | > 100 | > 100 µM | > 100 | > 100 | > 100 | > 100 | > 100 µM | > 100 µM | > 100 µM | > 100 µM | > 100 | > 100 µM | > 100 µM | > 100 | > 100 µM | > 100 µM |
| c1ccc(CN2CCc3[nH]c4ccccc4c3C2)cc1 | > 79.8 | 43.6 | > 73.5 | 45.9 | 35 | > 74.7 µM | 84.4 | > 100 | > 100 | > 71 |  |  |  |  |  |  |  |  |  |  |
| CC[C@@]1(OC(=O)C(N)CCCCN)C(=O)OCc2c1cc1n(c2=O)Cc2cc3ccccc3nc2-1 (some centres not stated) | 2.81 | 0.495 | 0.0667 | 5.26 | 1.79 | 2.37 µM | 2.84 | 0.861 | 0.609 | 65.9 |  |  |  |  |  |  |  |  |  |  |
| CNC(=O)c1cc(Oc2cccc3nc(NC(=O)Nc4cc(C(F)(F)F)cc(C(F)(F)F)c4)ccc23)ccn1 | > 100 | 41.8 | 10.4 | > 100 | 12.9 | 21.3 µM | 7.51 | 9.48 | 14.9 | 11.5 | 4.54 µM | 13.8 µM | 3.37 µM | 15.2 µM | 2.62 | 4.07 µM | 2.37 µM | 3.03 | 2.38 µM | 3.22 µM |
| CN(C)CCC(/C=C/c1ccccc1)=N\Nc1ccc(Cl)c(Cl)c1 | 10.6 | 11.2 | 13.3 | 4.41 | 32.8 | 16.8 µM | 10.8 | 9.05 | 5.9 | 6.18 |  |  |  |  |  |  |  |  |  |  |
| N#Cc1ccc(/C=C(/C(=O)c2ccccc2)c2ccccc2)cc1 | 44.2 | 11.3 | 40.2 | 10.1 | 29.1 | 48.4 µM | 26.9 | 39.9 | > 57.2 | 57 |  |  |  |  |  |  |  |  |  |  |
| O=C1CC(c2c(-c3ccccc3)[nH]c3ccccc23)C(=O)N1c1ccccc1 (configuration not stated) | > 100 | > 100 | 94 | > 100 | > 100 | > 100 µM | > 100 | > 100 | > 100 | > 100 |  |  |  |  |  |  |  |  |  |  |
| O=C1N2Cc3c4ccc5c3CN3C(=O)N6Cc7c(ccc(c7CN1C6(c1ccccc1)C23c1ccccc1)OCCOCCOc1cc(Br)c(Br)cc1OCCOCCO4)OCCOCCOc1cc(Br)c(Br)cc1OCCOCCO5 (configuration not stated) | > 100 | > 100 | > 100 | > 100 | > 100 | > 100 µM | > 100 | > 100 | > 100 | > 100 |  |  |  |  |  |  |  |  |  |  |
| O=C1/C=C/[C@@H](O)[C@@H]2C[C@@H](O)C[C@H]2/C=C/CCC[C@H](CCc2ccc3ncccc3c2)O1 | > 57.9 | 0.693 |  |  | 0.678 | > 100 µM |  | 0.419 | > 29.8 | 0.821 | 0.308 µM | 0.245 µM | 0.317 µM | 0.175 µM | 0.208 | 0.518 µM | 0.253 µM | 0.0945 | 0.101 µM | 0.265 µM |
| Cc1cc(-c2nnc(/C=C/c3ccc4c(c3)OCO4)o2)n[nH]1 | > 50 | > 50 | > 50 | > 50 | > 50 | 20.7 µM | > 50 | > 50 | 36.2 | > 50 | 21.4 µM | 11.9 µM | 17.5 µM | 2.15 µM | 8.96 | 4.6 µM | 23.7 µM | 20.9 | 9.02 µM | 22.3 µM |
| O=[N+]([O-])c1cccc(-c2nc(-c3ccc(Cl)cc3Cl)cn2-c2ccccc2)c1 | 1.92 | 2.02 | 7.56 | 1.22 | 2.11 | 0.945 µM | 1.12 | 2.08 | 1.34 | 1.13 | 0.787 µM | 0.855 µM | 1.39 µM | 0.573 µM | 0.704 | 0.458 µM | 0.58 µM | 0.823 | 0.509 µM | 0.612 µM |
| CCOC(=O)Nc1nc2ccccc2[nH]1 | > 100 | > 100 | > 100 | > 100 | > 100 | 20.4 µM and 5.61 µM | > 100 | 43.6 | > 100 | > 100 | 7.08 µM and 9.89 µM | 5.34 µM and 4.52 µM | 6.08 µM and > 22.9 µM | 5.16 µM and 2.96 µM | 5.18 | 4.09 µM and 2.19 µM | 28.8 µM and 60.6 µM | 3.89 | 3.01 µM and 2.61 µM | 11.3 µM and > 27 µM |
| Nc1ccccc1C#C/C=C\C#CC#C/C=C\C#Cc1ccccc1N | 16.4 | 15.9 | 28.1 | > 100 | 67.1 | 14 µM | 92.8 | 6.22 | 22 | > 100 | 2.77 µM | 3.84 µM | 10.5 µM | 3.64 µM | 11.7 | 2.78 µM | 14.6 µM | 2.18 | 3.27 µM | 15.3 µM |
